Laboratory results from patent publication US7632870B2, “Composition based on substituted 1,3-diphenylprop-2-en-1-one derivatives, preparation and uses thereof” (Genfit, priority 2002, dated 2009).

Columns and labels:
LDL = assay: Protection against LDL oxidation by copper (conjugated diene formation); type: biochemical; conditions: compound at 10^-4M
Description: LDL oxidation is an important alteration and plays a predominant role in the establishment and development of atherosclerosis (Jurgens, Hoff et al. 1987). […] Unless otherwise indicated, the reagents were from Sigma (St Quentin, France).
LDL were prepared according to the method described by Lebeau et al. (Lebeau, Furman et al. 2000).
The solutions of test compounds were prepared at 10^−2 M concentration in bicarbonate buffer (pH 9) and diluted in PBS to obtain final concentrations ranging from 0.1 to 100 μM for a total ethanol concentration of 1% (V/V).
Prior to oxidation, EDTA was removed from the LDL preparation by dialysis. Oxidation then took place at 30° C. by addition of 100 μl of 16.6 μM CuSO4 solution to 160 μL of LDL (125 μg protein/ml) and 20 μl of a test compound solution. The formation of dienes, the species under observation, was followed by measuring optical density at 234 nm in the samples treated with the compounds but in the presence or absence of copper. Optical density at 234 nm was measured every 10 minutes for 8 hours in a thermostated spectrophotometer (Tecan Ultra 380). The analyses were performed in triplicate. The compounds were considered to have antioxidant activity when they induced a longer lag phase and reduced the rate of oxidation and the amount of dienes formed in comparison with the control sample. […] FIGS. 1, 2 and 3 give an example of the results illustrating the antioxidant properties of compounds 2 and 5.

PPARα = molecular target: T1, PPARα (Homo sapiens, UniProt Q07869); assay: PPARα/Gal4 transactivation system in RK13 cells (luciferase reporter); type: cell-based, rabbit; conditions: 24 hours
T1 construct: expressed in transfected cells; host or cells: RK13 cells
T1 sequence (Q07869 239-466 limits assumed): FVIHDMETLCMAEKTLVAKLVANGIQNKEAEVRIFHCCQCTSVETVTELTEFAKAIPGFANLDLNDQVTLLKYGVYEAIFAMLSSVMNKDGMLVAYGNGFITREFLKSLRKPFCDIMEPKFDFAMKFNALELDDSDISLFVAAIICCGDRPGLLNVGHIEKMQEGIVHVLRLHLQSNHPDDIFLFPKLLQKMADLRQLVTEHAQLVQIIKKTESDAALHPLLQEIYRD
Description: RK13 cells were incubated with the different compounds at concentrations of 10, 30 and 100 μM or 1, 10 and 100 μM for 24 hours. The results are expressed as the induction factor (luminescent signal relative to untreated cells) after the different treatments.
PPAR activation was tested in vitro in RK13 fibroblast cell lines by measuring the transcriptional activity of chimeras composed of the DNA binding domain of the yeast gal4 transcription factor and the ligand binding domain of the different PPARs. These latter results were then confirmed in cell lines according to the following protocols:
RK13 cells were from ECACC (Porton Down, UK) and were grown in DMEM medium supplemented with 10% (V/N) fetal calf serum, 100 U/ml penicillin (Gibco, Paisley, UK) and 2 mM L-glutamine (Gibco, Paisley, UK). The culture medium was changed every two days. Cells were kept at 37° C. in a humidified 95% air/5% CO2 atmosphere.
The plasmids pG5TkpGL3, pRL-CMV, pGal4-hPPRAα, pGal4-hPPRAγ and pGal4-φ have been described by Raspe, Madsen et al. (1999). The pGal4-mPPRAα and pGal4-hPPRAγ constructs were obtained by cloning into the pGal4-φ vector of PCR-amplified DNA fragments corresponding to the DEF domains of the human PPARα and PPRAγ nuclear receptors.
[…] At the end of the experiment, the cells were lysed (Gibco, Paisley, UK) and luciferase activity was determined with a Dual-Luciferase™ Reporter Assay System kit (Promega, Madison, Wis., USA) according to the supplier's instructions as previously described (Raspe, Madsen et al. 1999).

[1] = system: Apo E2/E2 transgenic mice; assay: Effects on triglyceride and cholesterol metabolism in vivo
Description: Apo E2/E2 transgenic mice were kept on a 12-hour light/dark cycle at a constant temperature of 20±3° C. After a 1 week acclimation, the mice were weighed and divided into groups of 6 animals selected so that body weight would be uniformly distributed. The test compounds were suspended in carboxymethylcellulose and administered by intragastric gavage at the indicated doses, once a day for 7 or 8 days. Animals had access to food and water ad libitum. At the end of the experiment the animals were weighed and sacrificed under anesthesia. Blood was collected on EDTA. Plasma was prepared by centrifugation at 3000 rpm for 20 minutes. Liver samples were taken and stored frozen in liquid nitrogen for subsequent analysis.
Serum lipid concentrations (total cholesterol and free cholesterol, triglycerides and phospholipids) were determined by a colorimetric assay (Boehringer, Mannheim, Germany) according to the supplier's instructions. Serum concentrations of apolipoproteins AI, AII and CIII were determined as previously described (Raspe et al. J. Lipid Res. 40, 2099-2110, 1999, Asset G et al., Lipids, 34, 39-44, 1999).

CC(C)(Oc1ccc(C(=O)/C=C/c2cc(C(C)(C)C)c(O)c(C(C)(C)C)c2)c(O)c1)C(=O)O [Compound 2, 1-[2-hydroxy-4-carboxydimethylmethyloxyphenyl]-3-[3.5-ditertbutyl-4-hydroxyphenyl]prop-2-en-1-one]
lag phase of conjugated diene formation (LDL; FIG. 1-1, copper alone 111 minutes): more than 480 minutes | rate of conjugated diene formation (LDL; FIG. 1-2, copper alone 2): not measurable because too low | maximum amount of conjugated dienes formed (LDL; FIG. 1-3, copper alone 348): 54.4 nmol per mg of LDL | decrease in conjugated diene formation (LDL; FIG. 1-3, versus copper alone): 84%

CC(C)(Oc1ccc(/C=C/C(=O)c2ccccc2O)cc1)C(=O)O [Compound 4, 1-[2-hydroxyhenyl]-3-[4-carboxydimethylmethyloxyphenyl]pron-2-en-1-one]
Induction factor (luminescent signal relative to untreated cells) (PPARα; 10 μM): 4 | Induction factor (luminescent signal relative to untreated cells) (PPARα; 10 μM, listed as Cp4): 3.99 | Induction factor (luminescent signal relative to untreated cells) (PPARα; 30 μM): 22 | Induction factor (luminescent signal relative to untreated cells) (PPARα; 30 μM, listed as Cp4): 22.15 | Induction factor (luminescent signal relative to untreated cells) (PPARα; 100 μM): 60 | Induction factor (luminescent signal relative to untreated cells) (PPARα; 100 μM, listed as Cp4): 61.07

Cc1cc(/C=C/C(=O)c2ccc(Cl)cc2O)cc(C)c1OC(C)(C)C(=O)O [Compound 7, 1-[2-hydroxy-4-chlorophenyl]-3-[3,5-dimethyl-4-carboxydimethylmethyloxyphenyl]prop-2-en-1-one]
Induction factor (luminescent signal relative to untreated cells) (PPARα; 10 μM): 36.48 | Induction factor (luminescent signal relative to untreated cells) (PPARα; 30 μM): 50.37 | Induction factor (luminescent signal relative to untreated cells) (PPARα; 100 μM, listed as Cp7): 37.84 | triglycerides in large sized lipoparticles (exclusion chromatography) ([1]; gavage 200 mg/kg for 7 days, FIG. 3-3): decreased | cholesterol in large sized lipoparticles (exclusion chromatography) ([1]; gavage 200 mg/kg for 7 days, FIG. 3-4): decreased

CC(C)(Oc1ccc(C(=O)/C=C/c2cc(Br)c(O)c(Br)c2)c(O)c1)C(=O)O [Compound 8, 1-[2-hydroxy-4-carboxydimethylmethyloxyphenyl]-3-[3.5-dibromo-4-hydroxyphenyl]prop-2-en-1-one]
Induction factor (luminescent signal relative to untreated cells) (PPARα; 10 μM): 0.62 | Induction factor (luminescent signal relative to untreated cells) (PPARα; 30 μM): 1.27 | Induction factor (luminescent signal relative to untreated cells) (PPARα; 100 μM): 10 | Induction factor (luminescent signal relative to untreated cells) (PPARα; 100 μM, listed as Cp8): 9.98

Cc1cc(/C=C/C(=O)c2ccccc2O)cc(C)c1OC(C)(C)C(=O)O [Compound 11, 1-[2-hydroxyphenyl]-3-[3,5-dimethyl-4-carboxydimethylmethyloxyphenyl]prop-2-en-1-one]
Induction factor (luminescent signal relative to untreated cells) (PPARα; 1 μM): 1.20 | Induction factor (luminescent signal relative to untreated cells) (PPARα; 10 μM): 1.39 | Induction factor (luminescent signal relative to untreated cells) (PPARα; 100 μM, listed as Cp11): 10.19

CC(C)(Oc1ccc(C(=O)/C=C/c2ccc(Cl)cc2)c(O)c1)C(=O)O [Compound 18, 1-[2-hydroxy-4-carboxydimethylmethyloxyphenyl]-3-[4-chlorophenyil] prop-2-en-1-one]
lag phase of conjugated diene formation (LDL; FIG. 1-4, copper alone 178 minutes): 241 min | rate of conjugated diene formation (LDL; FIG. 1-5, copper alone 1.6): 1.4 nmol/min/mg of LDL | maximum amount of conjugated dienes formed (LDL; FIG. 1-6, copper alone 353): 305 nmol per mg of LDL

Cc1cc(/C=C/C(=O)c2ccc(Br)cc2O)cc(C)c1OC(C)(C)C(=O)O [Compound 25, 1-[2-hydroxy-4-bromophenyl]-3-[3,5-dimethyl-4-carboxydimethylmethyloxyphenyl]prop-2-en-1-one]
Induction factor (luminescent signal relative to untreated cells) (PPARα; 1 μM): 13.48 | Induction factor (luminescent signal relative to untreated cells) (PPARα; 10 μM): 21.03 | Induction factor (luminescent signal relative to untreated cells) (PPARα; 100 μM): 7.01

COc1ccccc1C(=O)/C=C/c1cc(C)c(OC(C)(C)C(=O)O)c(C)c1 [Compound 31, 1-[2-methoxyphenyl]-3-[3,5-dimethyl-4-carboxydimethylmethyloxyphenyl]prop-2-en-1-one]
Induction factor (luminescent signal relative to untreated cells) (PPARα; 1 μM): 3.77 | Induction factor (luminescent signal relative to untreated cells) (PPARα; 100 μM): 1.21

COc1cc(Cl)ccc1C(=O)/C=C/c1cc(C)c(OC(C)(C)C(=O)O)c(C)c1 [Compound 37, 1-[2-methyloxy-4-chlorophenyl]-3-[3,5-dimethyl-4-carboxydimethylmethyloxyphenyl]prop-2-en-1-one]
Induction factor (luminescent signal relative to untreated cells) (PPARα; 1 μM): 24.55 | Induction factor (luminescent signal relative to untreated cells) (PPARα; 10 μM): 27 | Induction factor (luminescent signal relative to untreated cells) (PPARα; 10 μM, listed as Cp37): 27.83 | Induction factor (luminescent signal relative to untreated cells) (PPARα; 100 μM): 0.02

CCCCCCCc1ccc(C(=O)/C=C/c2cc(C)c(OC(C)(C)C(=O)OC(C)(C)C)c(C)c2)cc1 [Compound 38, 1-[4-heptylphenyl]-3-[3,5-dimethyl-4-tertbutyloxycarbonyldimethylmethyloxyphenyl]prop-2-en-1-one]
Induction factor (luminescent signal relative to untreated cells) (PPARα; 1 μM): 14.70 | Induction factor (luminescent signal relative to untreated cells) (PPARα; 10 μM): 22 | Induction factor (luminescent signal relative to untreated cells) (PPARα; 10 μM, listed as Cp38): 22.22 | Induction factor (luminescent signal relative to untreated cells) (PPARα; 100 μM): 0.311

Cc1cc(/C=C/C(=O)c2ccc(Br)cc2)cc(C)c1OC(C)(C)C(=O)O [Compound 41, 1-[4-bromophenyl]-3-[3,5-dimethyl-4-carboxydimethylmethyloxyphenyl]prop-2-en-1-one]
Induction factor (luminescent signal relative to untreated cells) (PPARα; 1 μM): 34.61 | Induction factor (luminescent signal relative to untreated cells) (PPARα; 10 μM): 31 | Induction factor (luminescent signal relative to untreated cells) (PPARα; 10 μM, listed as Cp41): 31.18 | Induction factor (luminescent signal relative to untreated cells) (PPARα; 100 μM): 3.39 | triglycerides in large sized lipoparticles (exclusion chromatography) ([1]; 50 mg/kg/day for 8 days, FIG. 3-11): decrease | cholesterol in large sized lipoparticles (exclusion chromatography) ([1]; 50 mg/kg/day for 8 days, FIG. 3-12): decrease
